The nature of data set [1]: Dark toxicity against mouse PAM212 cells assessed as cell growth inhibition incubated for 30 mins under dark condition measured after 5 days by coulter counting method. The class given is cell-based.
Data set [2] relates to PAM212. The data set is described as follows: Phototoxicity against mouse PAM212 cells assessed as cell growth inhibition preincubated for 30 mins followed by 1.28 J/cm2 UV light exposure and measured after 5 days by coulter counting method. The class given is functional, cell-based. To be noted: PAM212, light or radiation study.
Data set [3] in a line: Dark toxicity against mouse PAM212 cells assessed as cell growth inhibition incubated for 5 days under dark condition by coulter counting method. The class given is cell-based.

Molecules are shown by their SMILES. Some results are limits rather than exact numbers.

For orientation: IC50 means the concentration that gives 50% inhibition. Consider `CCCCN(C)/N=N/c1c2ccoc2c(OC)c2oc(=O)ccc12`, for which, in data set [1], the IC50 at 30 min is more than 100 µM. The IC50 in data set [2] turned out to be 4 µM. The IC50 at 5 days in data set [3] turned out to be 7 µM.

On to `COc1c2occc2cc2ccc(=O)oc12` [METHOXSALEN], for which the IC50 at 30 min in data set [1] was more than 100 µM. Also, the IC50 in data set [2] was determined as 0.1 µM. Also, in data set [3], the IC50 at 5 days was more than 100 µM.

As to `CCN(CC)/N=N/c1c2ccoc2c(OC)c2oc(=O)ccc12`, the IC50 at 30 min in data set [1] was more than 100 µM. For the same compound, in data set [2], the IC50 was more than 100 µM. Besides, in data set [3], the IC50 at 5 days is 6 µM.

On to `CCN(C)/N=N/c1c2ccoc2c(OC)c2oc(=O)ccc12`, for which, in data set [1], the 50% inhibitory concentration (IC50) at 30 min was more than 100 µM. Further, the IC50 in data set [2] is more than 70 µM. Also, in data set [3], the IC50 at 5 days came to 10 µM.

Regarding `COc1c2occc2c(/N=N/N(C)C)c2ccc(=O)oc12`, in data set [1], the IC50 at 30 min is more than 100 µM. The IC50 in data set [2] was more than 100 µM. The concentration for half-maximal inhibition (IC50) at 5 days in data set [3] was 20 µM.

Regarding `COc1c2occc2c(NC(=O)NCCCl)c2ccc(=O)oc12`, the IC50 at 30 min in data set [1] was more than 100 µM. The IC50 in data set [2] was more than 100 µM. The IC50 at 5 days in data set [3] was more than 300 µM.

Regarding `COc1c2occc2c(NC(=O)CCl)c2ccc(=O)oc12`, the IC50 at 30 min in data set [1] was found to be 50 µM. For the same compound, the IC50 in data set [2] came out at 40 µM. For the same compound, the half-inhibitory concentration (IC50) at 5 days in data set [3] is 4 µM.

Regarding `COc1c2occc2c(NC(=O)c2ccc(N=[N+]=[N-])cc2)c2ccc(=O)oc12`, in data set [1], the IC50 at 30 min was more than 100 µM. Besides, the IC50 in data set [2] was 33 µM. For the same compound, the IC50 at 5 days in data set [3] is more than 300 µM.

Source of the values: ChEMBL document CHEMBL4330139, “Synthetically modified methoxsalen for enhanced cytotoxicity in light and dark reactions” (Bioorg Med Chem Lett, 2019).
